Here are results for 4 compounds from patent US4088793A, “Control of nitrosamine formation in nitrite cured meat” (Canada Packers Limited, priority 1977, dated 1978).

The nature of data set [1]: Volatile nitrosamine content of cook-out fat from fried nitrite-cured bacon slices streaked with test compound. Particulars: for blocking of formation of nitrosamines: 20 ppm level of incorporation in the meat; for inhibition of nitrosamine formation: in comparison with the untreated controls. From the text:
The mechanism by which the 1,2-dihydro- and 1,2,3,4-tetrahydro-6-hydroxyquinoline nitroxides interfere with the formation of nitrosamines at high temperature is not completely understood. However, the invention is not limited by any particular theory of operation. It has been shown by a series of tests with representative compounds that up to 100% of the nitrosamines which normally appear in fried bacon have been eliminated.
The nitroxide compounds from ethoxyquin and from dihydroethoxyquin, prepared as in Examples 1 and 2, respectively, were dissolved in separate portions of winterized soya oil to provide a 4.5% concentration and the resulting solutions were streaked on bacon slices, which had undergone a conventional nitrite cure and plant processing, in quantities providing levels of 1,2-dihydro-2,2,4-trimethyl-6-hydroxy-quinoline nitroxide of from 1 ppm to 100 ppm in the meat for one series of tests and levels of 1 - 20 ppm of the corresponding 1,2,3,4-tetrahydroquinoline nitroxide compound in the meat for another series of tests. Control slices of bacon were streaked with the oil alone. The bacon slices were fried under standardized conditions and the cook-out fat was analyzed for volatile nitrosamine content.

In data set [2] the test system is experimental animals. Particulars: tests on experimental animals; cited from earlier work.

For “1,2,3,4-tetrahydro-2,2,4-trimethyl-6-hydroxy-quinoline nitroxide [Nitroxide from Dihydro Ethoxyquin]”, the “blocking of formation of nitrosamines” value in data set [1] is reported as “essentially blocked formation of nitrosamines”. The “Nitrosamines In Cook-Out Fat, Test Product” value (from here on “Nitrosamines In Cook-Out Fat”) in data set [1] (Example 13: 20 ppm in meat, control product 35 ppb) turned out to be 3 ppb; in data set [1] (Example 14: 10 ppm in meat, control product 35 ppb), 13 ppb; in data set [1] (Example 15: 1 ppm in meat, control product 35 ppb), 20 ppb; in data set [1] (Example 16: 20 ppm in meat, control product 36 ppb, figures below 3 ppb not reliable), 2 ppb; in data set [1] (Example 17: 10 ppm in meat, control product 36 ppb), 6 ppb; in data set [1] (Example 18: 1 ppm in meat, control product 36 ppb) it was 22 ppb. Moreover, in data set [1], the “inhibition of nitrosamine formation” value is given as “excellent inhibition of nitrosamine formation”.

For “1,2-dihydro-2,2,4-trimethyl-6-hydroxy-quinoline nitroxide [Nitroxide from Ethoxyquin]”, in data set [1], the “blocking of formation of nitrosamines” value is given as “essentially blocked formation of nitrosamines”. Also, the “Nitrosamines In Cook-Out Fat” value in data set [1] (Example 3: 100 ppm in meat, control product 18 ppb, figures below 3 ppb not reliable) worked out at 0 ppb; in data set [1] (Example 4: 50 ppm in meat, control product 19 ppb, figures below 3 ppb not reliable), 0 ppb; in data set [1] (Example 5: 10 ppm in meat, control product 19 ppb) it was 3 ppb; in data set [1] (Example 6: 1 ppm in meat, control product 19 ppb), 13 ppb; in data set [1] (Example 7: 20 ppm in meat, control product 8 ppb, figures below 3 ppb not reliable) it was 0 ppb; in data set [1] (Example 8: 10 ppm in meat, control product 8 ppb, figures below 3 ppb not reliable), 0 ppb. The “Nitrosamines In Cook-Out Fat” value in data set [1] (Example 9: 1 ppm in meat, control product 8 ppb, figures below 3 ppb not reliable) turned out to be 2 ppb; in data set [1] (Example 10: 20 ppm in meat, control product 38 ppb, figures below 3 ppb not reliable), 2 ppb; in data set [1] (Example 11: 10 ppm in meat, control product 38 ppb) it was 5 ppb; in data set [1] (Example 12: 1 ppm in meat, control product 38 ppb) it was 16 ppb. Further, the “inhibition of nitrosamine formation” value in data set [1] is on record as “excellent inhibition of nitrosamine formation”.

As to `O=NN1CCCC1` [N-nitrosopyrrolidine], the carcinogenicity entry in data set [2] is “carcinogenic”.

Regarding `CN(C)N=O` [dimethylnitrosamine], the carcinogenicity entry in data set [2] is “carcinogenic”.
